According to publication PMC8815882, “Screening the pandemic response box identified benzimidazole carbamates, Olorofim and ravuconazole as promising drug candidates for the treatment of eumycetoma” (PLoS Neglected Tropical Diseases, 2022):
Like-named read-outs stand apart in the source and are kept apart here.

System: M. mycetomatis genome strain MM55
Test: CLSI M38-A2 based in vitro susceptibility screening (XTT or resazurin), growth at fixed concentration
Assay type: cell-based, Madurella mycetomatis
Conditions: Madurella mycetomatis
[1] = replicate A, read-out: Percentage survival at 25um, 25 um A
[2] = replicate B, read-out: Percentage survival at 25um, 25 uM B
[3] = replicate C, read-out: Percentage survival at 25um, 25 uM C
[4] = mean of replicates, read-out: Percentage survival at 25um, 25 uM mean
[5] = mean of replicates, read-out: Percentage survival at 100um, 100 uM mean
[6] = replicate 1, read-out: Percentage survival at 100um, 100 uM A
[7] = replicate 2, read-out: Percentage survival at 100um, 100 uM A
[8] = replicate 3, read-out: Percentage survival at 100um, 100 uM A
[9] = mean of replicates, MM55, read-out: Percentage survival at 25um, 25 uM mean
[10] = replicate A, MM55, read-out: Percentage survival at 25um, 25 um A
[11] = replicate B, MM55, read-out: Percentage survival at 25um, 25 uM B
[12] = replicate C, MM55, read-out: Percentage survival at 25um, 25 uM C
[13] = mean of replicates, MM55, read-out: Percentage survival at 100um, 100 uM mean
[14] = replicate 1, MM55, read-out: Percentage survival at 100um, 100 uM A
[15] = replicate 2, MM55, read-out: Percentage survival at 100um, 100 uM A
[16] = replicate 3, MM55, read-out: Percentage survival at 100um, 100 uM A
[17] = mean, read-out: Percentage survival at 25um, 25 uM mean
[18] = mean, read-out: Percentage survival at 100um, 100 uM mean
[19] = replicate (first column), read-out: Percentage survival at 100um, 100 uM A
[20] = replicate (second column), read-out: Percentage survival at 100um, 100 uM A
[21] = replicate (third column), read-out: Percentage survival at 100um, 100 uM A

Row | SMILES | activity at 25 µM [1] [%] | activity at 25 µM [2] [%] | activity at 25 µM [3] [%] | activity at 25 µM [4] [%] | activity at 100 µM [5] [%] | activity at 100 µM [6] [%] | activity at 100 µM [7] [%] | activity at 100 µM [8] [%] | other results
1 | O=C(NCCN1CCCCC1)c1cccc(C(F)(F)F)c1 [MMV1633964] | 87.8 | 90.2 | 82.3 | – | – | – | – | – | activity at 25 µM (mean of three replicates, read-out: Percentage survival at 25um, 25 uM mean): 86.8%; activity at 100 µM (first replicate column, read-out: Percentage survival at 100um, 100 uM A): 77.6%; activity at 100 µM (mean of three replicates, read-out: Percentage survival at 100um, 100 uM mean): 81.1%; activity at 100 µM (second replicate column, read-out: Percentage survival at 100um, 100 uM A): 90.5%; activity at 100 µM (third replicate column, read-out: Percentage survival at 100um, 100 uM A): 75.1%
2 | COc1c(NC(=O)[C@H]2CC[C@@H](COc3ccc([N+](=O)[O-])cc3)CC2)c(F)cc2c(=O)c(C(=O)O)cn(C3CC3)c12 [MMV1633965] | 86.3 | 88.2 | 76 | 83.5 | 82.8 | 86.1 | 78.7 | 83.4 | –
3 | Nc1nc(-c2ccccc2)nc2[nH]nc(Nc3ccc(C(F)(F)F)cc3)c12 [MMV1633968] | – | – | – | – | – | – | – | – | activity at 25 µM [9]: 111%; activity at 25 µM [10]: 147%; activity at 25 µM [11]: 105%; activity at 25 µM [12]: 80.3%; activity at 100 µM [13]: 86.9%; activity at 100 µM [14]: 89.5%; activity at 100 µM [15]: 94%; activity at 100 µM [16]: 77.2%
4 | O=C(O)c1ccc(-c2ccc(O[C@H]3O[C@H](CO)[C@@H](O)[C@H](O)[C@@H]3O)cc2)cc1 [MMV1633970] | 83.4 | 84.3 | 74.7 | 80.8 | 73.9 | 68.9 | 82.1 | 70.6 | –
5 | CN(C/C=C/C#CC(C)(C)C)Cc1cccc2ccccc12 [MMV1634359] | 132 | 99.8 | 60.4 | – | – | – | – | – | activity at 25 µM [17]: 97.3%; activity at 100 µM [18]: 81.5%; activity at 100 µM [19]: 86.8%; activity at 100 µM [20]: 58.9%; activity at 100 µM [21]: 98.8%
6 | O=C1c2cccc3cccc(c23)C(=O)N1CC1CO1 (stereo not shown) [MMV1634360] | 65.4 | 62.1 | 55.4 | – | – | – | – | – | activity at 25 µM [17]: 61%; activity at 100 µM [18]: 2.87%; activity at 100 µM [19]: -2.26%; activity at 100 µM [20]: 3.27%; activity at 100 µM [21]: 7.61%
7 | N[C@H]1CCC[C@H]1C(=O)O [MMV1634361] | – | – | – | – | – | – | – | – | activity at 25 µM [9]: 92.1%; activity at 25 µM [10]: 98.3%; activity at 25 µM [11]: 98.6%; activity at 25 µM [12]: 79.4%; activity at 100 µM [13]: 96.6%; activity at 100 µM [14]: 90.9%; activity at 100 µM [15]: 120%; activity at 100 µM [16]: 79.2%
8 | OB1OCc2cc(Cl)ccc21 [MMV1634363] | 51.2 | -4.3 | 52.5 | – | – | – | – | – | activity at 25 µM [17]: 33.1%; activity at 100 µM [18]: 61.8%; activity at 100 µM [19]: 40.7%; activity at 100 µM [20]: 85.6%; activity at 100 µM [21]: 59.1%
9 | CCc1cc(Nc2cc(=O)n(CCN3CCN(C(=O)c4ccccc4)CC3)c(=O)[nH]2)ccc1C [MMV1634383] | 86.7 | 79.7 | 85.7 | 84 | 88.4 | 93 | 83.3 | 89 | –
10 | CCN(CC)S(=O)(=O)c1ccc(Cl)c(C(=O)Nc2sc3c(c2C#N)CCCC3)c1 [MMV1634384] | 87.9 | 80.1 | 100 | 89.4 | 89.5 | 89.4 | 89.9 | 89.3 | –
11 | Nc1ccc(-c2nc3cc(C(F)(F)F)ccc3n2C23CC4CC(CC(C4)C2)C3)cc1 [MMV1634385] | – | – | – | – | – | – | – | – | activity at 25 µM [9]: 82.4%; activity at 25 µM [10]: 108%; activity at 25 µM [11]: 85.4%; activity at 25 µM [12]: 54%; activity at 100 µM [13]: 57.5%; activity at 100 µM [14]: 61.2%; activity at 100 µM [15]: 52.2%; activity at 100 µM [16]: 59.1%
